In one assay the target is USP25 (Homo sapiens (Human), UniProt Q9UHP3). The experiment in a line: Ubiquitin-Rhodamine 110 Assay for USP25 Activity. It counts as biochemical. A digest of the protocol:
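USP25-His6 (75 pM) preincubated 30 min with compound (25 μM to 1.3 nM, 10-point 3-fold), then Ub-Rh110 added; 45 min at room temperature in pH 8.0 Tris buffer with BME, BGG, Triton X-100, stopped with 10 mM citric acid. Fluorescence 485/535 nm; % inhibition vs no-enzyme and DMSO controls, IC50 by 4-parameter logistic fit.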

Another assay addresses USP28 (Homo sapiens (Human), UniProt Q96RU2). The assay is described as follows: Ubiquitin-Rhodamine 110 Assay for USP28 Activity. It counts as biochemical. A digest of the protocol:
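Single-point screen at 10 μM, 90 min; follow-up dose-response (25 μM top, 3-fold) with 75 pM USP28 (1-1077)-TEV-6*His, 30 min compound preincubation, Ub-Rh110 substrate for 20 min at room temperature, citric acid stop. Buffer pH 8.0 Tris; fluorescence 485/535 nm; IC50 by 4-parameter logistic fit of % inhibition.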

Sequence of USP25 (Q9UHP3 whole entry): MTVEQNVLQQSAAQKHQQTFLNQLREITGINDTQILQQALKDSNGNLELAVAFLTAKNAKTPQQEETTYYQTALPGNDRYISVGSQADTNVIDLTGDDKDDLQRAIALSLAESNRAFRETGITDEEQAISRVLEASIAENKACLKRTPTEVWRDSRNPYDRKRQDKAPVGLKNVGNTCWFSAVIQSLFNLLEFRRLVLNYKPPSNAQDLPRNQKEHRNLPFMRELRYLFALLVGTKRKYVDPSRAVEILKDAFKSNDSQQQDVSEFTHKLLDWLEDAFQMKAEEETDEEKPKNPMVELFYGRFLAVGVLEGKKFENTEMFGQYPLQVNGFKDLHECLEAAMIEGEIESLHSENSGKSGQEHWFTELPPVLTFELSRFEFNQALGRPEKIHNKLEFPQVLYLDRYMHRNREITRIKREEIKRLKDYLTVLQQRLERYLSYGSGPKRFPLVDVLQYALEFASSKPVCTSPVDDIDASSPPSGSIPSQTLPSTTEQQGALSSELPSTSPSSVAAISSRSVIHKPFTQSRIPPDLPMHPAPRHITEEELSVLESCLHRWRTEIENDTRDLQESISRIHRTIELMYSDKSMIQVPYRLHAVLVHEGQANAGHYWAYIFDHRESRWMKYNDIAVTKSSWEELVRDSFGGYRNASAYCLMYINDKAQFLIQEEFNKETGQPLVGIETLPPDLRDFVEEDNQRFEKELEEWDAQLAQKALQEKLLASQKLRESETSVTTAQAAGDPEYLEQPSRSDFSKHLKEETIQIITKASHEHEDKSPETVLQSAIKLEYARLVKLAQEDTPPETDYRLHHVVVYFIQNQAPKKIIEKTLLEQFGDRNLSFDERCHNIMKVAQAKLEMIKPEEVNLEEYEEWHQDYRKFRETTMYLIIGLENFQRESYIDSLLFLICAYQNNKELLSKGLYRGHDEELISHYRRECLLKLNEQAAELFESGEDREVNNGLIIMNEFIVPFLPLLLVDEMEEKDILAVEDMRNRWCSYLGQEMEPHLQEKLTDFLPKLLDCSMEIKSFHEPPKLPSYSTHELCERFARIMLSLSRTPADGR
Sequence of USP28 (Q96RU2 whole entry): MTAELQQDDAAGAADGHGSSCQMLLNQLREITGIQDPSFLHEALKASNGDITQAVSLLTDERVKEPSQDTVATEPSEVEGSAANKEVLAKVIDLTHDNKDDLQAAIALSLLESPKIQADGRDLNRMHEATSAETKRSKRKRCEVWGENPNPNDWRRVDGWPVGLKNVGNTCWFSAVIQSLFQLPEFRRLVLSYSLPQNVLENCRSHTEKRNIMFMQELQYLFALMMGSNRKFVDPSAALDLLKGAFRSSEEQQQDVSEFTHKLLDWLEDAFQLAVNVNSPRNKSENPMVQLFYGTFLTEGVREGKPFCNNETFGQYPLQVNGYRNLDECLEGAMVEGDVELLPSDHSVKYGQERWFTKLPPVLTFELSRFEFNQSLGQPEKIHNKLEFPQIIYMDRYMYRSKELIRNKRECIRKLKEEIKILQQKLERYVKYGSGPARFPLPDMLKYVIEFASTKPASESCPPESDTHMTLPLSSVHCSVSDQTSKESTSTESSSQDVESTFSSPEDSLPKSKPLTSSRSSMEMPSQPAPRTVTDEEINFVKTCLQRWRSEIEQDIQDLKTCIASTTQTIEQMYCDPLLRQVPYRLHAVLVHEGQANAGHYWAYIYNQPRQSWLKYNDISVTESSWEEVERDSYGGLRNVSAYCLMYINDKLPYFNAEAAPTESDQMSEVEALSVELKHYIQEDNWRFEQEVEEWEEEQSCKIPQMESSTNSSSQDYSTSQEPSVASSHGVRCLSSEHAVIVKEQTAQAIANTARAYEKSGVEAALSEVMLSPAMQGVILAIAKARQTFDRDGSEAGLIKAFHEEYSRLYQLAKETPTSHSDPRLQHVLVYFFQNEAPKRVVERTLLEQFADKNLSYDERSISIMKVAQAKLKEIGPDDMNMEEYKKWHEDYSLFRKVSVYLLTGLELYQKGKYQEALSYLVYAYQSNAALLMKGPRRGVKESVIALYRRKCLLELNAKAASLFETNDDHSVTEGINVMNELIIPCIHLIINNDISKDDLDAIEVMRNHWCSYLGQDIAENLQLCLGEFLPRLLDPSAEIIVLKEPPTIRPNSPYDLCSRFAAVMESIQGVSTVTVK

Turning to `Cc1ccc2c(N)c(C(=O)NCCc3ccc(N4CCn5ccnc5C4)cc3)sc2n1` [Example I-116, 3-Amino-N-(4-(5,6-dihydroimidazo[1,2-a]pyrazin-7(8H)-yl)phenethyl)-6-methylthieno[2,3-b]pyridine-2-carboxamide], the IC50 on USP25 and at USP28 was 0.2 to 2 µM each time.
Take `Cc1ccc2c(N)c(C(=O)NCCc3ccc(N4CCN[C@@H](C)C4)cc3)sc2n1` [Example I-121, (S)-3-amino-6-methyl-N-(4-(3-methylpiperazin-1-yl)phenethyl)thieno[2,3-b]pyridine-2-carboxamide]: the half-maximal inhibitory concentration (IC50) on USP25 and against USP28 was 0.2 to 2 µM throughout.
On to `Cc1ccc2c(N)c(C(=O)NCCc3ccc(N4CCNCC4)c(-c4cnn(C(F)F)c4)c3)sc2n1` [Example I-152, 3-Amino-N-(3-(1-(difluoromethyl)-1H-pyrazol-4-yl)-4-(piperazin-1-yl)phenethyl)-6-methylthieno[2,3-b]pyridine-2-carboxamide], for which the figures for the IC50 on USP25 and against USP28 were 10 to 25 µM and 2 to 10 µM, respectively.
For `Cc1ccc2c(N)c(C(=O)NCCc3ccc(N4CCNCC4)c(-c4ccc(C(=O)N5CCCC5)cc4)c3)sc2n1` [Example I-165], the results for the IC50 against USP25 and against USP28 were 10 to 25 µM and 0.2 to 2 µM, respectively.
The like results for `Cc1ccc2c(N)c(C(=O)NCCc3ccc(N4CCNCC4)c(-c4cnn(C5CCOCC5)c4)c3)sc2n1` [Example I-166] were, in that order, 10 to 25 µM and 2 to 10 µM.
The like results for `Cc1ccc2c(N)c(C(=O)NCCc3ccc(N4CCNCC4)c(-c4ccccn4)c3)sc2n1` [Example I-168, 3-Amino-6-methyl-N-(4-(piperazin-1-yl)-3-(pyridin-2-yl)phenethyl)thieno[2,3-b]pyridine-2-carboxamide] were, in that order, 10 to 25 µM and 2 to 10 µM.
The like results for `Cc1ccc2c(N)c(C(=O)NCCc3ccc(C4CCNCC4)c(F)c3)sc2n1` [Example I-169, 3-Amino-N-(3-fluoro-4-(piperidin-4-yl)phenethyl)-6-methylthieno[2,3-b]pyridine-2-carboxamide] were, in that order, 0.2 to 2 µM and below 0.2 µM.
As to `Cc1ccc2c(N)c(C(=O)NCCc3ccc(C(=O)O)cc3)sc2n1` [Example I-173, 4-(2-(3-Amino-6-methylthieno[2,3-b]pyridine-2-carboxamido)ethyl)benzoic acid], the IC50 against USP25 and against USP28 was 0.2 to 2 µM in each case.
Take `Cc1ccc2c(N)c(C(=O)NCCc3ccc(CC(=O)O)cc3)sc2n1` [Example I-174]: the IC50 (as a rule, the midpoint of a concentration-inhibition curve) is 2 to 10 µM against USP25 and 0.2 to 2 µM on USP28.
Regarding `Cc1ccc2c(N)c(C(=O)NCCc3cccc(C(=O)O)c3)sc2n1` [Example I-175], the IC50 on USP25 and at USP28 was 2 to 10 µM in each case.
As for `Cc1ccc2c(N)c(C(=O)NCCc3ccc4c(c3)C[C@H](C(=O)O)C4)sc2n1` [Example I-176], the IC50 against USP25 and against USP28 was 0.2 to 2 µM in each case.
For the molecule `Cc1ccc2c(N)c(C(=O)NCCc3ccc4c(c3)C[C@@H](C(=O)O)C4)sc2n1` [Example I-177], the IC50 at USP25 and at USP28 was 0.2 to 2 µM throughout.
As to `Cc1ccc2c(N)c(C(=O)NCCc3cccc(CC(=O)O)c3)sc2n1` [Example I-178], the IC50 against USP25 and on USP28 was 2 to 10 µM in each case.
With `Nc1c(C(=O)NCCc2ccc(N3CCNCC3)c(Cl)c2)sc2nc(C(F)F)ccc12` [Example I-179, 3-Amino-N-(3-chloro-4-(piperazin-1-yl)phenethyl)-6-(difluoromethyl)thieno[2,3-b]pyridine-2-carboxamide], the IC50 against USP25 and on USP28 was 2 to 10 µM each time.
For `Cc1ccc2c(N)c(C(=O)NCCc3ccc(N4CCNCC4)c(O)c3)sc2n1` [Example I-182, 3-amino-N-(3-hydroxy-4-(piperazin-1-yl)phenethyl)-6-methylthieno[2,3-b]pyridine-2-carboxamide], the IC50 at USP25 lay in the range of 2 to 10 µM; on USP28, 0.2 to 2 µM.
With `Cc1cc(N)nc2sc(C(=O)NCCc3ccc(N4CCNCC4)cc3)c(N)c12` [Example I-183, 3,6-Diamino-4-methyl-N-(4-(piperazin-1-yl)phenethyl)thieno[2,3-b]pyridine-2-carboxamide], the IC50 on USP25 and at USP28 was 0.2 to 2 µM throughout.
As to `Nc1ccc2c(N)c(C(=O)NCCc3ccc(N4CCNCC4)cc3)sc2n1` [Example I-184], the half-inhibitory concentration (IC50) against USP25 and against USP28 was 0.2 to 2 µM each time.
Regarding `CN(C)c1ccc2c(N)c(C(=O)NCCc3ccc(N4CCNCC4)cc3)sc2n1` [Example I-186, 3-Amino-6-(dimethylamino)-N-(4-(piperazin-1-yl)phenethyl)thieno[2,3-b]pyridine-2-carboxamide], the IC50 is 10 to 25 µM on USP25 and 2 to 10 µM at USP28.
For `CCNc1ccc2c(N)c(C(=O)NCCc3ccc(N4CCNCC4)cc3)sc2n1` [Example I-188], the IC50 was 0.2 to 2 µM against USP25 and below 0.2 µM on USP28.
Take `CC(C)Nc1ccc2c(N)c(C(=O)NCCc3ccc(N4CCNCC4)cc3)sc2n1` [Example I-189]: the IC50 against USP25 lay in the range of 2 to 10 µM; against USP28 it was 0.2 to 2 µM.
In the case of `COc1ccc2c(N)c(C(=O)NCCc3ccc(N4CCNCC4)cc3)sc2n1` [Example I-190, 3-Amino-6-methoxy-N-(4-(piperazin-1-yl)phenethyl)thieno[2,3-b]pyridine-2-carboxamide], the IC50 against USP25 and at USP28 was 0.2 to 2 µM in each case.
`CCOc1ccc2c(N)c(C(=O)NCCc3ccc(N4CCNCC4)cc3)sc2n1` [Example I-191]: the results for the IC50 on USP25 and at USP28 were 2 to 10 µM and 0.2 to 2 µM, respectively.
The like results for `CC(C)Oc1ccc2c(N)c(C(=O)NCCc3ccc(N4CCNCC4)cc3)sc2n1` [Example I-192] were, in that order, 2 to 10 µM and 0.2 to 2 µM.
The like results for `Nc1c(C(=O)NCCc2ccc(N3CCNCC3)cc2)sc2nc(OC(F)F)ccc12` [Example I-193, 3-Amino-6-(difluoromethoxy)-N-(4-(piperazin-1-yl)phenethyl)thieno[2,3-b]pyridine-2-carboxamide] were, in that order, 0.2 to 2 µM and below 0.2 µM.
For the molecule `CNc1ccc2c(N)c(C(=O)NCCc3ccc(N4CCN(C)CC4)cc3)sc2n1` [Example I-195], the IC50 against USP25 was 0.2 to 2 µM; at USP28, below 0.2 µM.
The like results for `CNc1ccc2c(N)c(C(=O)NCCc3ccc(C4CCNCC4)cc3)sc2n1` [Example I-196] were, in that order, 0.2 to 2 µM and 0.2 to 2 µM.
For `Cc1nc2sc(C(=O)NCCc3ccc(N4CCNCC4)cc3)c(N)c2cc1C1CC1` [Example I-197, 3-Amino-5-cyclopropyl-6-methyl-N-(4-(piperazin-1-yl)phenethyl)thieno[2,3-b]pyridine-2-carboxamide], the IC50 fell in the range of 10 to 25 µM on USP25 and 2 to 10 µM on USP28.
On to `Cc1nc2sc(C(=O)NCCc3ccc(N4CCNCC4)cc3)c(N)c2cc1N` [Example I-198, 3,5-Diamino-6-methyl-N-(4-(piperazin-1-yl)phenethyl)thieno[2,3-b]pyridine-2-carboxamide], for which the values for the IC50 against USP25 and on USP28 were 10 to 25 µM and 2 to 10 µM, respectively.
On the same counts, the results for `CNC1CN(c2cc(F)c(CCNC(=O)c3sc4nc(C)ccc4c3N)cc2F)C1` [Example I-199, 3-Amino-N-(2,5-difluoro-4-(3-(methylamino)azetidin-1-yl)phenethyl) -6-methylthieno[2,3-b]pyridine-2-carboxamide] are 0.2 to 2 µM and 0.2 to 2 µM.
On the same counts, the results for `CCN[C@@H]1CCN(c2ccc(CCNC(=O)c3sc4nc(C)ccc4c3N)cc2)C1` [Example I-200, (R)-3-amino-N-(4-(3-(ethylamino)pyrrolidin-1-yl)phenethyl)-6-methylthieno[2,3-b]pyridine-2-carboxamide] are 0.2 to 2 µM and 0.2 to 2 µM.
As to `Cc1ccc2c(N)c(C(=O)NC[C@@H](C)c3ccc(N4CCNCC4)cc3)sc2n1` [Example I-203], the IC50 against USP25 was 2 to 10 µM; at USP28, 0.2 to 2 µM.
`Cc1ccc2c(N)c(C(=O)NC[C@H](C)c3cc(F)c(N4CCNCC4)cc3F)sc2n1` [Example I-208]: the IC50 against USP25 fell in the range of 2 to 10 µM; on USP28 it was 0.2 to 2 µM.
On the same counts, the results for `Cc1ccc2c(N)c(C(=O)NCCc3cnc(N4CCNCC4)c(Cl)c3)sc2n1` [Example I-215, 3-Amino-N-(2-(5-chloro-6-(piperazin-1-yl)pyridin-3-yl)ethyl)-6-methylthieno[2,3-b]pyridine-2-carboxamide] are 2 to 10 µM and 0.2 to 2 µM.
The like results for `N#Cc1ccc2c(N)c(C(=O)NCCc3cc(F)c(N4CCNCC4)cc3F)sc2n1` [Example I-220, 3-Amino-6-cyano-N-(2,5-difluoro-4-(piperazin-1-yl)phenethyl)thieno[2,3-b]pyridine-2-carboxamide] were, in that order, 2 to 10 µM and 2 to 10 µM.
On the same counts, the results for `Nc1c(C(=O)NCCc2ccc(N3CCNCC3)cc2)sc2nc3c(cc12)CCC3O` (stereo not shown) [Example I-223, 3-Amino-7-hydroxy-N-(4-(piperazin-1-yl)phenethyl)-6,7-dihydro-5H-cyclopenta[b]thieno[3,2-e]pyridine-2-carboxamide] are 0.2 to 2 µM and 2 to 10 µM.
